The source of these data is patent US20230167088A1, “1-PYRAZINYLPYRAZOLYL-3-OXYALKYL ACIDS AND THEIR DERIVATIVES, AND THEIR USE FOR CONTROL OF UNDESIRED PLANT GROWTH” (BAYER AKTIENGESELLSCHAFT, priority 2020, published 2023).

Assay [1] relates to ECHCG. As to the kind of experiment: Herbicidal post-emergence action 1a (greenhouse pots, visual rating). The assay is classed as in vivo, Echinochloa crus-galli. The following applies: rated visually about 3 weeks after treatment, 100% = plants have died, 0% = like control plants. In short, it runs like this:
(§1)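 Visual scoring versus untreated plants (100% = plants dead, 0% = as control) followed roughly 3 weeks in the greenhouse after treatment. Plants grown in sandy loam pots had been sprayed on green parts at the one-leaf stage, 2–3 weeks post-sowing, with aqueous WP/EC preparations containing 0.5% additive, 600 l/ha, at 320 and/or 80 g/ha.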

Assay [2] deals with AMARE. Kind of assay: Herbicidal pre-emergence action 2b (doubly sown, 1280 g/ha). The assay is classed as in vivo, Amaranthus retroflexus. Conditions: doubly sown pots, dosage 1280 g/ha, visual scoring after about 3 weeks. The gist of the method:
(§2)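 Pre-emergence soil-surface spray (WP/EC formulation, 0.5% additive, 600 L/ha water) onto covered seeds in sandy loam, doubly sown per pot. Greenhouse ~3 wk; % effect scored visually against untreated pots.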

For a further assay, the system named is harmful plants. Kind of assay: Herbicidal post-emergence action 1a, summary across species. The following applies: Tables A1 to A15 (320 g/ha and/or 80 g/ha). The assay is classed as in vivo.
In the next assay the test system is POAAN. Kind of assay: Herbicidal pre-emergence action 2b (doubly sown, 1280 g/ha). The format is in vivo, Poa annua. Conditions: doubly sown pots, dosage 1280 g/ha, visual scoring after about 3 weeks. In short, it runs like this: as §2
In assay [3] the test system is DIGSA. As to the kind of experiment: Herbicidal pre-emergence action 2a (greenhouse pots, visual scoring). The format is in vivo, Digitaria sanguinalis. Conditions: dosage 320 g/ha, visual scoring after about 3 weeks. In short, it runs like this:
(§3)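 Pots of covered seed were sprayed pre-emergence at 320 and/or 80 g/ha. Roughly three weeks of greenhouse growth preceded visual scoring in percent versus untreated controls.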

For assay [4], the system named is DIGSA. As to the kind of experiment: Herbicidal post-emergence action 1a (greenhouse pots, visual rating). The assay is classed as in vivo, Digitaria sanguinalis. The following applies: rated visually about 3 weeks after treatment, 100% = plants have died, 0% = like control plants. In short, it runs like this: as §1
Assay [5] concerns ECHCG. Kind of assay: Herbicidal pre-emergence action 2a (greenhouse pots, visual scoring). The assay is classed as in vivo, Echinochloa crus-galli. Conditions: dosage 320 g/ha, visual scoring after about 3 weeks. The gist of the method: as §3
In another assay the test system is ALOMY. Kind of assay: Herbicidal post-emergence action 1a (greenhouse pots, visual rating). The format is in vivo, Alopecurus myosuroides. The following applies: rated visually about 3 weeks after treatment, 100% = plants have died, 0% = like control plants. The gist of the method:
as §1

The test system of the next assay is POLCO. As to the kind of experiment: Herbicidal pre-emergence action 2a (greenhouse pots, visual scoring). Conditions: dosage 320 g/ha, visual scoring after about 3 weeks vs untreated controls. The format is in vivo, Polygonum convolvulus. The gist of the method: as §3
In assay [6] the test system is AMARE. Kind of assay: Herbicidal post-emergence action 1a (greenhouse pots, visual rating). The format is in vivo, Amaranthus retroflexus. Conditions: dosage 320 g/ha, visual rating about 3 weeks after treatment. In short, it runs like this:
as §1

The test system of another assay is LOLRI. Kind of assay: Herbicidal pre-emergence action 2a (greenhouse pots, visual scoring). The assay is classed as in vivo, Lolium rigidum. Conditions: dosage 320 g/ha, visual scoring after about 3 weeks vs untreated controls. The gist of the method: as §3
For assay [7], the system named is VERPE. As to the kind of experiment: Herbicidal post-emergence action 1a (greenhouse pots, visual rating). The assay is classed as in vivo, Veronica persica. The following applies: visual rating about 3 weeks after treatment. The gist of the method: as §1
The test system of the next assay is MATIN. Kind of assay: Herbicidal pre-emergence action 2b (doubly sown, 1280 g/ha). The assay is classed as in vivo, Matricaria inodora. Conditions: doubly sown pots, dosage 1280 g/ha, visual scoring after about 3 weeks. The gist of the method: as §2
The next assay deals with STEME. The assay is described as above. The assay is classed as in vivo, Stellaria media. The following applies: doubly sown pots, dosage 1280 g/ha, visual scoring after about 3 weeks. In short, it runs like this: as §2
For assay [8], the system named is AMARE. Kind of assay: Herbicidal pre-emergence action 2a (greenhouse pots, visual scoring). The format is in vivo, Amaranthus retroflexus. The following applies: dosage 320 g/ha, visual scoring after about 3 weeks vs untreated controls. In short, it runs like this: as §3
Another assay relates to SETVI. As to the kind of experiment: Herbicidal post-emergence action 1a (greenhouse pots, visual rating). The format is in vivo, Setaria viridis. The following applies: rated visually about 3 weeks after treatment, 100% = plants have died, 0% = like control plants. The gist of the method:
as §1

Assay [9] deals with VERPE. As to the kind of experiment: Herbicidal pre-emergence action 2a (greenhouse pots, visual scoring). The assay is classed as in vivo, Veronica persica. The following applies: dosage 320 g/ha, visual scoring after about 3 weeks vs untreated controls. In short, it runs like this: as §3

For `C[C@H](Oc1nn(-c2cnccn2)c(-c2cncc(F)c2)c1Br)C(=O)O` [Example I-37], the “Post-emergence action against ECHCG in %” value in the assay with ECHCG [1] (Dosage 320 g/ha) stood at 90%. In the assay on AMARE [2], the “Pre-emergence action at 1280 g/ha against AMARE in %” value worked out at 100%. The “herbicidal efficacy against harmful plants in the case of post-emergence treatment (in words)” value in the assay on harmful plants is recorded as “good herbicidal efficacy”. The “Pre-emergence action at 1280 g/ha against POAAN in %” value with POAAN stood at 100%. In the assay with DIGSA [3], the “Pre-emergence action against DIGSA in %” value turned out to be 100%. For the same compound, the “Post-emergence action against DIGSA in %” value with DIGSA [4] (Dosage 320 g/ha) was 90%. The “Pre-emergence action against ECHCG in %” value in the assay on ECHCG [5] turned out to be 90%. Further, the “Post-emergence action against ALOMY in %” value came to 90% in the assay on ALOMY (Dosage 80 g/ha) and 100% in the assay with ALOMY (Dosage 320 g/ha). Moreover, the “Pre-emergence action against POLCO in %” value in the assay on POLCO amounted to 100%. Further, the “Post-emergence action against AMARE in %” value in the assay on AMARE [6] was 90%. Further, the “Pre-emergence action against LOLRI in %” value with LOLRI is reported as 100%. For the same compound, the “Post-emergence action against VERPE in %” value with VERPE [7] (dosage 80 g/ha) was 80%; in the assay on VERPE [7] (dosage 320 g/ha), 90%. In addition, in the assay on MATIN, the “Pre-emergence action at 1280 g/ha against MATIN in %” value worked out at 100%. Further, the “Pre-emergence action at 1280 g/ha against STEME in %” value in the assay with STEME turned out to be 100%. In the assay with AMARE [8], the “Pre-emergence action against AMARE in %” value was 90%. Moreover, the “Post-emergence action against SETVI in %” value in the assay on SETVI (Dosage 80 g/ha) and in the assay on SETVI (Dosage 320 g/ha) was 90% each time. For the same compound, in the assay on VERPE [9], the “Pre-emergence action against VERPE in %” value is 100%.

As for `COC(=O)[C@@H](C)Oc1nn(-c2cnccn2)c(-c2cncc(F)c2)c1Br` [Example I-39], the “Post-emergence action against ECHCG in %” value with ECHCG [1] (Dosage 80 g/ha) is reported as 80%; with ECHCG [1] (Dosage 320 g/ha), 90%. Besides, the “Pre-emergence action at 1280 g/ha against AMARE in %” value in the assay on AMARE [2] is given as 100%. Further, in the assay with harmful plants, the “herbicidal efficacy against harmful plants in the case of post-emergence treatment (in words)” value was “good herbicidal efficacy”. The “Pre-emergence action at 1280 g/ha against POAAN in %” value with POAAN is given as 100%. For the same compound, the “Pre-emergence action against DIGSA in %” value with DIGSA [3] came to 100%. The “Post-emergence action against DIGSA in %” value with DIGSA [4] (Dosage 80 g/ha) was determined as 80%; in the assay with DIGSA [4] (Dosage 320 g/ha), 90%. Further, in the assay with ECHCG [5], the “Pre-emergence action against ECHCG in %” value is 100%. Besides, the “Post-emergence action against ALOMY in %” value in the assay on ALOMY (Dosage 80 g/ha) is listed as 90%; with ALOMY (Dosage 320 g/ha) it was 100%. Further, the “Pre-emergence action against POLCO in %” value in the assay on POLCO was found to be 90%. The “Post-emergence action against AMARE in %” value in the assay with AMARE [6] turned out to be 80%. For the same compound, the “Pre-emergence action against LOLRI in %” value in the assay with LOLRI turned out to be 100%. The “Post-emergence action against VERPE in %” value stood at 80% in the assay on VERPE [7] (dosage 80 g/ha) and 90% in the assay on VERPE [7] (dosage 320 g/ha). The “Pre-emergence action at 1280 g/ha against MATIN in %” value in the assay with MATIN worked out at 100%. Moreover, the “Pre-emergence action at 1280 g/ha against STEME in %” value with STEME stood at 100%. The “Pre-emergence action against AMARE in %” value in the assay on AMARE [8] is reported as 100%. The “Post-emergence action against SETVI in %” value in the assay on SETVI (Dosage 80 g/ha) and with SETVI (Dosage 320 g/ha) was 80% in each case. Further, the “Pre-emergence action against VERPE in %” value in the assay with VERPE [9] stood at 100%.
